Experimental data from the NIST ThermoML archive (doi:10.1021/je900193m).

Assay: xn = mol fraction of the nth substance listed
Conditions: 101 kPa, Liquid, holographic inferometry, x1 = 0

CCOC(=O)OCC [diethyl carbonate] + CCCCCCC
Conditions	binary diffusion coefficient [m2/s]
278.15 K	3.93e-09
281.15 K	3.96e-09
284.15 K	3.99e-09
287.15 K	4.02e-09
290.15 K	4.08e-09
293.15 K	4.14e-09
296.15 K	4.19e-09
299.15 K	4.27e-09
302.15 K	4.32e-09
305.15 K	4.4e-09
308.15 K	4.47e-09
311.15 K	4.54e-09
314.15 K	4.62e-09
317.15 K	4.7e-09
320.15 K	4.8e-09
323.15 K	4.88e-09
326.15 K	4.97e-09
329.15 K	5.07e-09
332.15 K	5.15e-09
335.15 K	5.25e-09
338.15 K	5.35e-09

CCOC(=O)CCCCC(=O)OCC [diethyl hexanedioate] + CCCCCCC
Conditions	binary diffusion coefficient [m2/s]
278.15 K	1.93e-09
281.15 K	1.96e-09
284.15 K	1.99e-09
287.15 K	2.02e-09
290.15 K	2.06e-09
293.15 K	2.1e-09
296.15 K	2.15e-09
299.15 K	2.2e-09
302.15 K	2.25e-09
305.15 K	2.31e-09
308.15 K	2.37e-09
311.15 K	2.43e-09
314.15 K	2.49e-09
317.15 K	2.56e-09
320.15 K	2.62e-09
323.15 K	2.7e-09
326.15 K	2.78e-09
329.15 K	2.85e-09
332.15 K	2.92e-09
335.15 K	3.02e-09
338.15 K	3.11e-09

COC(=O)OC [dimethyl carbonate] + CCCCCCC
Conditions	binary diffusion coefficient [m2/s]
278.15 K	4.93e-09
281.15 K	4.97e-09
284.15 K	5.01e-09
287.15 K	5.07e-09
290.15 K	5.13e-09
293.15 K	5.19e-09
296.15 K	5.25e-09
299.15 K	5.33e-09
302.15 K	5.39e-09
305.15 K	5.48e-09
308.15 K	5.55e-09
311.15 K	5.63e-09
314.15 K	5.71e-09
317.15 K	5.8e-09
320.15 K	5.9e-09
323.15 K	5.99e-09
326.15 K	6.09e-09
329.15 K	6.2e-09
332.15 K	6.29e-09
335.15 K	6.41e-09
338.15 K	6.52e-09
